“Also recorded” adds a separate entry of the source.
How the values were obtained:
aged-impaired (AI) rats [1] = test: Morris water maze behavioral task; assay type: in vivo, rat; conditions: 100 μg ICV
Procedure: The effects of 6,6 dimethyl-3-(3-hydroxypropyl)thio-1-(thiazol-2-yl)-6,7-dihydro-2-benzothiophen-4(5H)-one on the in vivo spatial memory retention of aged-impaired (AI) rats were assessed in a Morris water maze behavioral task. A water maze is a pool surrounded with a novel set of patterns relative to the maze.
Cognitively impaired aged rats were implanted unilaterally with a cannula into the lateral ventricle. Stereotaxic coordinates were 1.0 mm posterior to bregma, 1.5 mm lateral to midline, and 3.5 mm ventral to the skull surface. After about a week of recovery, the rats were pre-trained in a water maze for 2 days (6 trials per day) to locate a submerged escape platform hidden underneath the surface of the pool, in which the escape platform location varied from day to day. No intracerebroventricular (ICV) infusion was given during pre-training.
After pre-training, rats received ICV infusion of either 100 μg 6,6 dimethyl-3-(3-hydroxypropyl)thio-1-(thiazol-2-yl)-6,7-dihydro-2-benzothiophen-4(5H)-one (n=6) in 5 μl DMSO or vehicle DMSO (n=5) 40 min prior to water maze training and testing. Training consisted of 8 trials per day for 2 days where the hidden escape platform remained in the same location. Rats were given 60 seconds to locate the platform with a 60 seconds inter-trial interval. The rats were given a probe test (120 seconds) 24 hr. after the end of training where the escape platform was removed. During the training, there were 4 blocks, where each block had 4 training trials.
During a test trial 24 hr after training, the escape platform was removed. The search/swim pattern of the rats was used to measure whether the rats remember where the escape platform was located during pre-trial training in order to test for the long-term memory of the rats. In this trial, “target annulus” is a designated area 1.5 times the size of the escape platform around the area where the platform was located during pre-trial training. “Opposite annulus” is a control area of the same size as the size of the target annulus, which is located opposite to the target annulus in the pool. If the rats had good long-term memory, they would tend to search in the area surrounding the location where the platform was during the pre-trial training (i.e., the “target” annulus; and not the “opposite” annulus). “Time in annulus” is the amount of time in seconds that the rat spent in the target or opposite annulus area. “Number (#) of crossings” in annulus is the number of times the rat swam across the target or opposite annulus area.

GABAA α5 receptor = biological target: T1, GABAA α5 receptor (Rattus norvegicus, UniProt P19969); test: GABAA α5 receptor occupancy with Ro 15-4513 tracer; assay type: in vivo, Long Evans rats; conditions: for % RO (L-655,708 Method): young Long Evans rats; for Ro 15-4513 binding in hippocampus / Ro 15-4513 levels/binding in cerebellum: 0.01-10 mg/kg
T1 construct: from tissue; host or cells: rat brain in vivo; hippocampus versus cerebellum
Source text: Food and water were available ad libitum.

aged-impaired (AI) rats [2] = test: Radial Arm Maze (RAM) behavioral task, spatial memory retention; assay type: in vivo, rat
Procedure: […] RAM behavioral tasks were performed on eight AI rats. All five treatment conditions (vehicle and four dosage levels) were tested on all eight rats.
The RAM apparatus used consisted of eight equidistantly-spaced arms. An elevated maze arm (7 cm width×75 cm length) projected from each facet of an octagonal center platform (30 cm diameter, 51.5 cm height). Clear side walls on the arms were 10 cm high and were angled at […] to form a trough. A food well (4 cm diameter, 2 cm deep) was located at the distal end of each arm. Froot Loops™ (Kellogg Company) were used as rewards. Blocks constructed of Plexiglas™ (30 cm height×12 cm width) could be positioned to prevent entry to any arm. Numerous extra maze cues surrounding the apparatus were also provided.
The AI rats were initially subjected to a pre-training test (Chappell et al. Neuropharmacology 37: 481-487, 1998). The pre-training test consisted of a habituation phase (4 days), a training phase on the standard win-shift task (18 days) and another training phase (14 days) in which a brief delay was imposed between presentation of a subset of arms designated by the experimenter (e.g., 5 arms available and 3 arms blocked) and completion of the eight-arm win-shift task (i.e., with all eight arms available).
In the habituation phase, rats were familiarized to the maze for an 8-minute session on four consecutive days. In each of these sessions, food rewards were scattered on the RAM, initially on the center platform and arms and then progressively confined to the arms. After this habituation phase, a standard training protocol was used, in which a food pellet was located at the end of each arm. Rats received one trial each day for 18 days. Each daily trial terminated when all eight food pellets had been obtained or when either 16 choices were made, or 15 minutes had elapsed. After completion of this training phase, a second training phase was carried out in which the memory demand was increased by imposing a brief delay during the trial. At the beginning of each trial, three arms of the eight-arm maze were blocked. Rats were allowed to obtain food on the five arms to which access was permitted during this initial “information phase” of the trial. Rats were then removed from the maze for 60 seconds, during which time the barriers on the maze were removed, thus allowing access to all eight arms. Rats were then placed back onto the center platform and allowed to obtain the remaining food rewards during this “retention test” phase of the trial. The identity and configuration of the blocked arms varied across trials.
The number of “errors” the AI rats made during the retention test phase was tracked. […]

α5-containing GABAA R = α5-containing GABAA R (Homo sapiens, UniProt P18507+P31644); conditions: EC20; cited from earlier work
[3] = probe test 24 hr after training

T1 sequence (P19969 32-464 limits assumed): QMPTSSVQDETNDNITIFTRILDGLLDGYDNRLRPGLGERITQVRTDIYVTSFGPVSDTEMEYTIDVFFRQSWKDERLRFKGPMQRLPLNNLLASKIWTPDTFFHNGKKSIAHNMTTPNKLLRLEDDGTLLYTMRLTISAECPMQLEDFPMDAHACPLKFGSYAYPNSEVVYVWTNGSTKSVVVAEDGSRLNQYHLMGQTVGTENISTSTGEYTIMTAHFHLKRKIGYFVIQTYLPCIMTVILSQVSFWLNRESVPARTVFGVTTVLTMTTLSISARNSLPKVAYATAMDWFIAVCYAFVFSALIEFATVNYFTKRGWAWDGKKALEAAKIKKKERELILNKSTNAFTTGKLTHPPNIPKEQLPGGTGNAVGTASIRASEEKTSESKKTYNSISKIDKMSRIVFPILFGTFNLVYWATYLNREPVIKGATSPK
α5-containing GABAA R, sequence (P31644 32-462): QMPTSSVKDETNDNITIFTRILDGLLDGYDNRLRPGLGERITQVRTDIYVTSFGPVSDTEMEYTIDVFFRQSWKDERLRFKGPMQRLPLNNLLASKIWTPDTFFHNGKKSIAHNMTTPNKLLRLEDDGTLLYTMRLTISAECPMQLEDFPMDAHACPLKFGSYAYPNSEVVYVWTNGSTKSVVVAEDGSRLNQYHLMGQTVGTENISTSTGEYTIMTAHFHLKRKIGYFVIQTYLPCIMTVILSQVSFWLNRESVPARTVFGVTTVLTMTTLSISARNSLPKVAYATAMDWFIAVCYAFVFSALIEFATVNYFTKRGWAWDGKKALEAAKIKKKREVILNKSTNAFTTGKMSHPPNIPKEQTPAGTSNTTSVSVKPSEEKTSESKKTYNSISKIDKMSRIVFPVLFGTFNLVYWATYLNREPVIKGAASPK
α5-containing GABAA R, sequence (P28472 26-473 partner): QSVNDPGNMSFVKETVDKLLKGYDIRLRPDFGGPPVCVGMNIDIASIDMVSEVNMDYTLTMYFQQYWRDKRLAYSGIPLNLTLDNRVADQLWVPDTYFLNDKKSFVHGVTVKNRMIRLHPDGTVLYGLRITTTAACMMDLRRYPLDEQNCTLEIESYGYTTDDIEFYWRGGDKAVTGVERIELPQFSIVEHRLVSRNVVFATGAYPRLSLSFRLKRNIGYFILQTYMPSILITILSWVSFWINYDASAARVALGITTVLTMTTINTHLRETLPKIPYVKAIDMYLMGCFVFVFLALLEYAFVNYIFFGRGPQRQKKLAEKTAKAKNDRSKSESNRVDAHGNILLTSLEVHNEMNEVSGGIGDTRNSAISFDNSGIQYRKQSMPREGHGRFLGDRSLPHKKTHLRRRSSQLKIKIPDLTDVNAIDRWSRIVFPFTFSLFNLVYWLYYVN
α5-containing GABAA R, sequence (P18507 40-475): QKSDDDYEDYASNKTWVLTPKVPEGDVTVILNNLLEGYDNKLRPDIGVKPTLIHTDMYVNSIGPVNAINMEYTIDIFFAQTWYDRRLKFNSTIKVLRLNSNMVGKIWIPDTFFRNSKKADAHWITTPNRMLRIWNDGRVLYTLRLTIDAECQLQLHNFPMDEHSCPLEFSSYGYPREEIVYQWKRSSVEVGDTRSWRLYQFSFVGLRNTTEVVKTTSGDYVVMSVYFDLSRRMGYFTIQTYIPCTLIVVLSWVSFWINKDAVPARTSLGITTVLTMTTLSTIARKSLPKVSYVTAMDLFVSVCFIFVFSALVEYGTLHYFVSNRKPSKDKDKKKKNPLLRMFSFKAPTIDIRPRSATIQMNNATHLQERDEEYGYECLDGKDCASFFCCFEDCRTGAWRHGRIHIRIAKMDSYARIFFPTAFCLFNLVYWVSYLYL

SMILES	time to find the escape platform (aged-impaired (AI) rats [1]; beginning of training (block 1))	time to find the escape platform (aged-impaired (AI) rats [1]; end of training (block 4))	number of crossings of target annulus compared to opposite annulus (aged-impaired (AI) rats [1]; [3])	time in target annulus compared to opposite annulus (aged-impaired (AI) rats [1]; [3])	% RO (L-655,708 Method) (GABAA α5 receptor; 0.01 mg/kg, i.v.)	% RO (L-655,708 Method) (GABAA α5 receptor; 0.1 mg/kg, i.v.)	% RO (L-655,708 Method) (GABAA α5 receptor; 1 mg/kg, i.v.)	Ro 15-4513 binding in hippocampus (GABAA α5 receptor; i.v.)	Ro 15-4513 levels/binding in cerebellum (GABAA α5 receptor; i.v.)	% RO (L-655,708 Method) (GABAA α5 receptor; 10 mg/kg, i.v.)	GABAA α5 receptors occupied (GABAA α5 receptor; at exposures behaviorally active in aged-impaired rats, hippocampus)	ED50 of receptor occupancy, ratio method (GABAA α5 receptor; i.v.)	receptor occupancy at 10 mg/kg (GABAA α5 receptor; rat, iv, 10 mg/kg)	average no. of errors ± SEM, retention test (aged-impaired (AI) rats [2]; 3 mg/kg ip, two-hour delay)	memory performance relative to vehicle control (aged-impaired (AI) rats [2]; 3 mg/kg ip, two-hour delay)	α5 in vitro efficacy (α5-containing GABAA R)	GABAA α5 receptor occupancy (GABAA α5 receptor; 10 mg/kg, i.v.)	memory performance relative to vehicle control (aged-impaired (AI) rats [2]; 3 mg/kg, four-hour delay)	memory performance relative to vehicle control (aged-impaired (AI) rats [2]; 10 mg/kg, four-hour delay)
CC1(C)CC(=O)c2c(SCCCO)sc(-c3nccs3)c2C1 [6,6 dimethyl-3-(3-hydroxypropyl)thio-1-(thiazol-2-yl)-6,7-dihydro-2-benzothiophen-4(5H)-one]	about 24 seconds	about 9.6 seconds	crossed the “target annulus” more often	spent significantly more time in the target annulus															
COC(=O)c1c(-c2ccccc2)cnnc1-c1ccccc1 [methyl 3,5-diphenylpyridazine-4-carboxylate]					19.2%	16.4%	38.5%	dose-dependently reduced Ro 15-4513 binding in hippocampus; also recorded: blocked the binding of Ro154513 in the hippocampus	without affecting cerebellum levels of Ro 15-4513; also recorded: did not affect binding of Ro15413 in the cerebellum	110.0%	about 32%	1.8 mg/kg	> 90%	1.31±0.40	significantly improved memory performance	+27			
CCOC(=O)c1ncn2c1Cn1c(C)nnc1-c1cc(OC)ccc1-2 [ethyl 3-methoxy-7-methyl-9H-benzo[f]imidazo[1,5-a][1,2,4]tri]								reduced Ro 15-4513 binding in hippocampus	without affecting cerebellum levels of Ro 15-4513								> 90%	significantly improved memory performance	significantly improved memory performance

Reference: patent publication US20240132513A1, “BENZAZEPINE DERIVATIVES, COMPOSITIONS, AND METHODS FOR TREATING COGNITIVE IMPAIRMENT” (AGENEBIO, INC., priority 2022, published 2024)
